From publication PMC6261661 (ACS chemical neuroscience, 2018)
Square brackets hold non-standard residues; d marks the D form. Peptide text beside a SMILES is read from it. * marks the point of attachment. Bip = N[C@@H](Cc1ccc(-c2ccccc2)cc1)C(=O)O; dBip = N[C@H](Cc1ccc(-c2ccccc2)cc1)C(=O)O; dPhe(4-I) = N[C@H](Cc1ccc(I)cc1)C(=O)O; 2Nal = N[C@@H](Cc1ccc2ccccc2c1)C(=O)O; 3Pal = N[C@@H](Cc1cccnc1)C(=O)O; 4Pal = N[C@@H](Cc1ccncc1)C(=O)O; Tic = O=C(O)[C@@H]1Cc2ccccc2CN1; 2Thi = N[C@@H](Cc1cccs1)C(=O)O; Octanoyl = CCCCCCCC(=O)*

Assays:
Type in all cases: cell-based
[1] = molecular target: T1, mMC4R (Mus musculus, UniProt P56450); test: Antagonist Schild analysis against agonist MTII at mMC4R; settings: for mMC4R pharmacology class printed in Fold Diff. column (Ant, SA): Ant = antagonist, SA = some stimulatory activity at 100 µM
[2] = molecular target: mMC5R (Mus musculus, UniProt P41149); test: CRE/β-galactosidase reporter gene bioassay, agonist activity at mMC5R; settings: for mMC5R pharmacology in words: comparisons are to reference peptide 1; for mMC5R Fold Diff.: fold difference in EC50 vs peptide 1, negative prefix = more potent than 1; for mMC5R fold less potent than peptide 1: less potent than 1
[3] = molecular target: T2, mMC3R (Mus musculus, UniProt P33033); test: cell-based; settings: for mMC3R Fold Diff: fold difference in EC50 vs peptide 1, negative prefix = more potent than 1
[4] = molecular target: T1, mMC4R; test: CRE/β-galactosidase reporter gene bioassay, agonist activity at mMC4R; settings: for mMC4R relative percentage of stimulation at 100 μM: ligand at 100 μM, compared to maximal response generated by α-MSH; for mMC4R Fold Diff.: fold difference in EC50 vs peptide 1, negative prefix = more potent than 1
[5] = molecular target: mMC1R (Mus musculus, UniProt Q01727); test: CRE/β-galactosidase reporter gene bioassay, agonist activity at mMC1R; settings: for mMC1R pharmacology in words: comparisons are to reference peptide 1; for EC50: mMC1R EC50, agonist, HEK-293 cells stably expressing receptor, ±SEM; for mMC1R Fold Diff: fold difference in EC50 vs peptide 1, negative prefix = more potent than 1
[6] = molecular target: T2, mMC3R; test: Antagonist Schild analysis against agonist MTII at mMC3R; settings: for mMC3R pharmacology class printed in Fold Diff column (Ant, SA): Ant = antagonist, SA = some stimulatory activity at 100 µM
[7] = ligand at 100 μM, compared to maximal response generated by α-MSH

T1 sequence (P56450 whole entry): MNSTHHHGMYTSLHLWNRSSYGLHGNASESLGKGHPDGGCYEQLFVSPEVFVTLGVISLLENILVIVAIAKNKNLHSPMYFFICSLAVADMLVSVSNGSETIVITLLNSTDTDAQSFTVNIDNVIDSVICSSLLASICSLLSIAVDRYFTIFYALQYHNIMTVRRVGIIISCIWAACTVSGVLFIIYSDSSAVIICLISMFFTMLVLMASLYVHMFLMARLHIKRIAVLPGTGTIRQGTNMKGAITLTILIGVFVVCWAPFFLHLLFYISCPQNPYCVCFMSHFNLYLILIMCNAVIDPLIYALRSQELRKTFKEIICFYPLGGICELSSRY
T2 sequence (P33033 whole entry): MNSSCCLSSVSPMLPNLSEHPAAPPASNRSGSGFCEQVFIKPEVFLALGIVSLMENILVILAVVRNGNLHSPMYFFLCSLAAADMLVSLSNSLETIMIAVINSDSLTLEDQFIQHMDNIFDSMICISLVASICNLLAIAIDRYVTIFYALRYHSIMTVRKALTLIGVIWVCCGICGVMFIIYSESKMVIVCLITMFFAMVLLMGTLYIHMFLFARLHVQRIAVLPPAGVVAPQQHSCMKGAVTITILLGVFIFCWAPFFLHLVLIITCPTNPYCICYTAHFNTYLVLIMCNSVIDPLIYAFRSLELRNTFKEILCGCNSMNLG
Sequence of mMC5R (P41149 whole entry): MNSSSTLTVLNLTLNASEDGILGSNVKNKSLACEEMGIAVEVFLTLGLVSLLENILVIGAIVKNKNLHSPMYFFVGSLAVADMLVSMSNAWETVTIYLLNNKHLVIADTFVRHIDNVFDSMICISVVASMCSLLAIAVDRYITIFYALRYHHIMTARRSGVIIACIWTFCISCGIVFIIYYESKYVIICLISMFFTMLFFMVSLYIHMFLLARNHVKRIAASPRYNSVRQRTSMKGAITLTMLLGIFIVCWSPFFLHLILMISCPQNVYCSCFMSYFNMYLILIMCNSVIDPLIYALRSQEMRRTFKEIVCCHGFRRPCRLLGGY
Sequence of mMC1R (Q01727 whole entry): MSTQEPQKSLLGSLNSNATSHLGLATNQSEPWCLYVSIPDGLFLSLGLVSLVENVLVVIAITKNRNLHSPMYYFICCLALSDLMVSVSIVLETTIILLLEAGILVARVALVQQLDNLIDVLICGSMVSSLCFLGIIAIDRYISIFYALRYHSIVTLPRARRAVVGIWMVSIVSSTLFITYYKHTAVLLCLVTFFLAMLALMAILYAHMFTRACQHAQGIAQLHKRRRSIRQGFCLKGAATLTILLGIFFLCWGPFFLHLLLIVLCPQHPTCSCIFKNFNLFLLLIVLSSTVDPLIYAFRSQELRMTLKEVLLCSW

Structure (SMILES) | mMC4R pharmacology class printed in Fold Diff. column (Ant, SA) [1] | mMC5R pharmacology in words [2] | mMC5R Fold Diff. [2] | mMC4R relative percentage of stimulation at 100 μM [4] [%] | mMC1R pharmacology in words [5] | Kb [1] [µM] | EC50 [2] [µM] | EC50 [5] [µM] | Kb [6] [µM] | mMC3R pharmacology class printed in Fold Diff column (Ant, SA) [6] | EC50 [4] [µM] | mMC4R Fold Diff. [4] | mMC1R Fold Diff [5] | also measured
CCCCCCCC(=O)N[C@@H](Cc1c[nH]cn1)C(=O)N[C@H](Cc1ccccc1)C(=O)N[C@@H](CCCNC(=N)N)C(=O)N[C@@H](Cc1ccc(-c2ccccc2)cc1)C(N)=O [Peptide 2, Octanoyl-His-DPhe-Arg-Bip-NH2] (Octanoyl-H[dF]R[Bip]-NH2) | Ant | decreased potencies | 12 | 40 | equipotent |  |  |  |  |  |  |  |  | mMC3R relative percentage of stimulation at 100 μM ([3]; 100000.0): 50%−65%
CCCCCCCC(=O)N[C@@H](Cc1cnc[nH]1)C(=O)N[C@H](Cc1ccccc1)C(=O)N[C@@H](CCCNC(=N)N)C(=O)N[C@@H](Cc1ccc(-c2ccccc2)cc1)C(N)=O [Peptide 2, Octanoyl-His-DPhe-Arg-Bip-NH2] (Octanoyl-H[dF]R[Bip]-NH2) |  |  |  |  |  | 0.1 | 0.062 ± 0.004 | 0.045 ± 0.012 |  |  |  |  |  | 
CCCCCCCC(=O)N[C@@H](Cc1c[nH]cn1)C(=O)N[C@H](Cc1ccc(-c2ccccc2)cc1)C(=O)N[C@@H](CCCNC(=N)N)C(=O)N[C@@H](Cc1c[nH]c2ccccc12)C(N)=O [Peptide 7, Octanoyl-His-DBip-Arg-Trp-NH2] |  | equipotent |  |  |  |  | 0.015 ± 0.004 | 0.0037 ± 0.0009 | 0.0631 | Ant | 0.5 ± 0.2 | 36 | −40 | mMC3R relative percentage of stimulation at 100 μM ([3]; 100000.0): 50%−65%; mMC3R relative percentage of stimulation at 100 μM [3, 7]: 60%; mMC1R fold difference in EC50, more potent than reference peptide 1 ([5]; more potent agonist than 1): 40 fold
CCCCCCCC(=O)N[C@@H](Cc1c[nH]cn1)C(=O)N[C@H](Cc1ccccc1)C(=O)N[C@@H](CCCNC(=N)N)C(=O)N[C@H](Cc1ccc(-c2ccccc2)cc1)C(N)=O [Peptide 8, Octanoyl-His-DPhe-Arg-DBip-NH2] (Octanoyl-H[dF]R[dBip]-NH2) | Ant | decreased potencies | 6 |  | equipotent | 0.0501 | 0.031 ± 0.003 | 0.18 ± 0.02 | 0.316 | Ant |  |  |  | 
CC(=O)N[C@@H](Cc1cccnc1)C(=O)N[C@H](Cc1ccc(I)cc1)C(=O)N[C@@H](CCCNC(=N)N)C(=O)N[C@@H](Cc1c[nH]c2ccccc12)C(N)=O [Peptide 12, Ac-3PAL-(pI)DPhe-Arg-Trp-NH2] (Ac-[3Pal][dPhe(4-I)]RW-NH2) | SA Ant |  | 3340 | 35 |  | 0.00501 | 18 ± 3 | 4.8 ± 1.4 | 0.1 | Ant |  |  | 34 | mMC5R fold less potent than peptide 1 [2]: 3300 fold
CC(=O)N[C@@H](Cc1ccncc1)C(=O)N[C@H](Cc1ccc(I)cc1)C(=O)N[C@@H](CCCNC(=N)N)C(=O)N[C@@H](Cc1c[nH]c2ccccc12)C(N)=O [Peptide 16, Ac-4PAL-(pI)DPhe-Arg-Trp-NH2] (Ac-[4Pal][dPhe(4-I)]RW-NH2) | Ant |  | 114 |  |  | 0.00126 | 0.61 ± 0.25 | 2.9 ± 1.5 | 0.0794 | Ant |  |  | 20 | fold preference for the mMC4R versus mMC3R ([1]; antagonist): 66 fold
CC(=O)N[C@@H](Cc1ccc(-c2ccccc2)cc1)C(=O)N[C@H](Cc1ccc(I)cc1)C(=O)N[C@@H](CCCNC(=N)N)C(=O)N[C@@H](Cc1c[nH]c2ccccc12)C(N)=O [Peptide 17, Ac-Bip-(pI)DPhe-Arg-Trp-NH2] (Ac-[Bip][dPhe(4-I)]RW-NH2) | Ant |  | 83 |  |  | 0.0794 | 0.44 ± 0.07 | 5.2 ± 1.7 | 0.631 | Ant |  |  | 37 | 
CC(=O)N[C@@H](Cc1c[nH]c2ccccc12)C(=O)N[C@H](Cc1ccc(-c2ccccc2)cc1)C(=O)N[C@@H](CCCNC(=N)N)C(=O)N[C@@H](Cc1c[nH]c2ccccc12)C(N)=O [Peptide 18, Ac-Trp-DBip-Arg-Trp-NH2] (Ac-W[dBip]RW-NH2) | SA Ant | non-selective mMC1R and mMC5R micromolar agonist profile | 340 | 45 | non-selective mMC1R and mMC5R micromolar agonist profile | 0.1 | 1.8 ± 1.3 | 1.8 ± 1 | 0.2 | Ant |  |  | 13 | 
CC(=O)N[C@@H](Cc1ccncc1)C(=O)N[C@H](Cc1ccc(-c2ccccc2)cc1)C(=O)N[C@@H](CCCNC(=N)N)C(=O)N[C@@H](Cc1c[nH]c2ccccc12)C(N)=O [Peptide 22, Ac-4PAL-DBip-Arg-Trp-NH2] (Ac-[4Pal][dBip]RW-NH2) |  |  | 235 |  |  |  | 1.3 ± 0.3 | 1.9 ± 0.72 | 0.316 | SA Ant | 1.3 ± 0.2 | 92 | 14 | mMC3R relative percentage of stimulation at 100 μM ([3]; 100000.0): 45%
CC(=O)N[C@@H](Cc1cccs1)C(=O)N[C@H](Cc1ccccc1)C(=O)N[C@@H](CCCNC(=N)N)C(=O)N[C@@H](Cc1ccc2ccccc2c1)C(N)=O [Peptide 28, Ac-2Thi-DPhe-Arg-Nal(2’)-NH2] (Ac-[2Thi][dF]R[2Nal]-NH2) |  |  | 14 |  |  |  | 0.076 ± 0.018 | 2.6 ± 1.3 |  |  | 0.45 ± 0.19 | 33 | 19 | mMC5R fold less potent than peptide 1 [2]: 14 fold; fold more potent at the mMC5R compared to the mMC1R ([2]; selectivity, agonist EC50): 35 fold; fold more potent at the mMC5R compared to the mMC3R ([2]; selectivity, agonist EC50): 163 fold; fold more potent at the mMC5R compared to the mMC4R ([2]; selectivity, agonist EC50): 6 fold; EC50 [3]: 12 ± 6 µM; mMC3R Fold Diff [3]: 22
CC(=O)N[C@@H](Cc1c[nH]cn1)C(=O)N[C@H](Cc1ccc(I)cc1)C(=O)N[C@@H](CCCNC(=N)N)C(=O)N1Cc2ccccc2C[C@H]1C(N)=O [Peptide 31, Ac-His-(pI)DPhe-Arg-Tic-NH2] (Ac-H[dPhe(4-I)]R[Tic]-NH2) |  | less potent | 25 |  | more potent |  | 0.13 ± 0.03 | 0.024 ± 0.004 |  |  | 0.64 ± 0.06 | 46 | −6 | EC50 [3]: 2.9 ± 0.4 µM; mMC3R Fold Diff [3]: 5; selectivity for the mMC1R, fold difference as compared to the mMC3R ([5]; agonist EC50): 120 fold; selectivity for the mMC1R, fold difference as compared to the mMC4R ([5]; agonist EC50): 26 fold; selectivity for the mMC1R, fold difference as compared to the mMC5R ([5]; agonist EC50): 6 fold
CC(=O)N[C@@H](Cc1c[nH]cn1)C(=O)N[C@H](Cc1ccc(I)cc1)C(=O)N[C@@H](CCCNC(=N)N)C(=O)N[C@@H](Cc1ccccc1)C(N)=O [Peptide 32, Ac-His-(pI)DPhe-Arg-Phe-NH2] (Ac-H[dPhe(4-I)]RF-NH2) |  | equipotent agonists |  |  |  |  | 0.0184 ± 0.0057 | 0.091 ± 0.013 |  |  | 0.08 ± 0.007 | 6 |  | mMC3R relative percentage of stimulation at 100 μM [3, 7]: 60% at 100 μM
CC(=O)N[C@@H](Cc1c[nH]cn1)C(=O)N[C@H](Cc1ccc(-c2ccccc2)cc1)C(=O)N[C@@H](CCCNC(=N)N)C(=O)N[C@@H](Cc1ccc(-c2ccccc2)cc1)C(N)=O [Peptide 33, Ac-His-DBip-Arg-Bip-NH2] (Ac-H[dBip]R[Bip]-NH2) | Ant | less potent | 6 | 30 | more potent | 0.158 | 0.0312 ± 0.0047 | 0.0158 ± 0.0061 | 0.501 | Ant |  |  | −9 | 
CC(=O)N[C@@H](Cc1c[nH]cn1)C(=O)N[C@H](Cc1ccc(-c2ccccc2)cc1)C(=O)N[C@@H](CCCNC(=N)N)C(=O)N[C@H](Cc1ccc(-c2ccccc2)cc1)C(N)=O [Peptide 35, Ac-His-DBip-Arg-DBip-NH2] (Ac-H[dBip]R[dBip]-NH2) | SA Ant | less potent | 8 | 23 | within 3-fold experimental error | 0.158 | 0.042 ± 0.007 | 0.09 ± 0.02 | 0.2 | Ant |  |  |  | 
CC(=O)N[C@@H](Cc1c[nH]cn1)C(=O)N[C@H](Cc1ccc(-c2ccccc2)cc1)C(=O)N[C@@H](CCCNC(=N)N)C(=O)N[C@@H](Cc1ccc2ccccc2c1)C(N)=O [Peptide 36, Ac-His-DBip-Arg-Nal(2’)-NH2] (Ac-H[dBip]R[2Nal]-NH2) |  | less potent | 4 |  | more potent |  | 0.0207 ± 0.0041 | 0.017 ± 0.0054 | 0.0251 | SA Ant | 0.052 ± 0.018 | 4 | −8 | mMC3R relative percentage of stimulation at 100 μM ([3]; 100000.0): 50%
